From patent US20240226125A1, “USE OF SOTAGLIFLOZIN FOR THE TREATMENT OF PATIENTS WITH TYPE 1 DIABETES MELLITUS” (priority 2019, published 2024)

System: adult patients with Type 1 Diabetes Mellitus who have inadequate glycemic control with insulin therapy
Test: inTandem 1 and inTandem 2 pooled clinical studies, safety events / main risks
Type: in vivo, human
Settings: Week 52
[1] = 200 mg (N = 219), Baseline BMI <27 kg/m^2
[2] = 200 mg (N = 305), Baseline BMI ≥27 kg/m^2
[3] = 200 mg, Baseline BMI <27 kg/m^2
[4] = 200 mg, Baseline BMI ≥27 kg/m^2
[5] = 400 mg (N = 212), Baseline BMI <27 kg/m^2
[6] = 400 mg (N = 313), Baseline BMI ≥27 kg/m^2

Question: Which results are given for `CCOc1ccc(Cc2cc([C@@H]3O[C@H](SC)[C@@H](O)[C@H](O)[C@H]3O)ccc2Cl)cc1` [sotagliflozin, (2S,3R,4R,5S,6R)-2-(4-chloro-3-(4-ethoxybenzyl)phenyl)-6-(methylthio)tetrahydro-2H-pyran-3,4,5-triol]?
Answer: Genital Mycotic Infections (male), Events [n (%) n]: patients n (200 mg (N = 108), Baseline BMI <27 kg/m^2): 2; Genital Mycotic Infections (female), Events [n (%) n]: patients n (200 mg (N = 111), Baseline BMI <27 kg/m^2): 8; Genital Mycotic Infections (female), Events [n (%) n]: patients n (200 mg (N = 148), Baseline BMI ≥27 kg/m^2): 32; Genital Mycotic Infections (male), Events [n (%) n]: patients n (200 mg (N = 157), Baseline BMI ≥27 kg/m^2): 6; Positively Adjudicated Diabetic Ketoacidosis, Events [n (%) n]: patients n [1]: 7; Positively Adjudicated Severe Hypoglycemia, Events [n (%) n]: patients n [1]: 17; Positively Adjudicated Diabetic Ketoacidosis, Events [n (%) n]: patients n [2]: 8; Positively Adjudicated Severe Hypoglycemia, Events [n (%) n]: patients n [2]: 13; Diarrhea, EAIR per 1,000 Subject-years (95% CL) [3]: 89.76 (48.29, 131.23) per 1,000 Subject-years; Diarrhea, Events [n (%) n]: events n [3]: 23; Diarrhea, Events [n (%) n]: patients (%) [3]: 8.2%; Diarrhea, Events [n (%) n]: patients n [3]: 18; Diarrhea, Events per Subject per Year [3]: 0.115 Events per Subject per Year; Diarrhea, Relative Risk of EAIR (95% CL) Versus Placebo [3]: 2.60 (1.11, 6.68); Documented hypoglycemia <55 mg/dL, Events per Subject per Year [3]: 16.86 Events per Subject per Year; Genital Mycotic Infections (female), EAIR per 1,000 Subject-years (95% CL) [3]: 78.17 (24.00, 132.34) per 1,000 Subject-years; Genital Mycotic Infections (female), Events [n (%) n]: events n [3]: 10; Genital Mycotic Infections (female), Events [n (%) n]: patients (%) [3]: 7.2%; Genital Mycotic Infections (female), Events per Subject per Year [3]: 0.098 Events per Subject per Year; Genital Mycotic Infections (female), Relative Risk of EAIR (95% CL) Versus Placebo [3]: 2.57 (0.70, 11.96); Genital Mycotic Infections (male), EAIR per 1,000 Subject-years (95% CL) [3]: 20.37 (0.00, 48.60) per 1,000 Subject-years; Genital Mycotic Infections (male), Events [n (%) n]: events n [3]: 2; Genital Mycotic Infections (male), Events [n (%) n]: patients (%) [3]: 1.9%; Genital Mycotic Infections (male), Events per Subject per Year [3]: 0.020 Events per Subject per Year; Genital Mycotic Infections (male), Relative Risk of EAIR (95% CL) Versus Placebo [3]: 1.06 (0.11, 10.19); Positively Adjudicated Diabetic Ketoacidosis, EAIR per 1,000 Subject-years (95% CL) [3]: 34.91 (9.05, 60.77) per 1,000 Subject-years; Positively Adjudicated Diabetic Ketoacidosis, Events [n (%) n]: events n [3]: 7; Positively Adjudicated Diabetic Ketoacidosis, Events [n (%) n]: patients (%) [3]: 3.2%; Positively Adjudicated Diabetic Ketoacidosis, Events per Subject per Year [3]: 0.035 Events per Subject per Year; Positively Adjudicated Severe Hypoglycemia, EAIR per 1,000 Subject-years (95% CL) [3]: 84.77 (44.48, 125.07) per 1,000 Subject-years; Positively Adjudicated Severe Hypoglycemia, Events [n (%) n]: events n [3]: 43; Positively Adjudicated Severe Hypoglycemia, Events [n (%) n]: patients (%) [3]: 7.8%; Positively Adjudicated Severe Hypoglycemia, Events per Subject per Year [3]: 0.214 Events per Subject per Year; Positively Adjudicated Severe Hypoglycemia, Relative Risk of EAIR (95% CL) Versus Placebo [3]: 1.01 (0.51, 2.00); Diarrhea, EAIR per 1,000 Subject-years (95% CL) [4]: 57.25 (29.20, 85.30) per 1,000 Subject-years; Diarrhea, Events [n (%) n]: events n [4]: 22; Diarrhea, Events [n (%) n]: patients (%) [4]: 5.2%; Diarrhea, Events [n (%) n]: patients n [4]: 16; Diarrhea, Events per Subject per Year [4]: 0.079 Events per Subject per Year; Diarrhea, Relative Risk of EAIR (95% CL) Versus Placebo [4]: 0.78 (0.40, 1.51); Documented hypoglycemia <55 mg/dL, Events per Subject per Year [4]: 13.41 Events per Subject per Year; Genital Mycotic Infections (female), EAIR per 1,000 Subject-years (95% CL) [4]: 240.02 (156.86, 323.19) per 1,000 Subject-years; Genital Mycotic Infections (female), Events [n (%) n]: events n [4]: 41; Genital Mycotic Infections (female), Events [n (%) n]: patients (%) [4]: 21.6%; Genital Mycotic Infections (female), Events per Subject per Year [4]: 0.308 Events per Subject per Year; Genital Mycotic Infections (female), Relative Risk of EAIR (95% CL) Versus Placebo [4]: 3.37 (1.65, 7.46); Genital Mycotic Infections (male), EAIR per 1,000 Subject-years (95% CL) [4]: 41.05 (8.20, 73.89) per 1,000 Subject-years; Genital Mycotic Infections (male), Events [n (%) n]: events n [4]: 7; Genital Mycotic Infections (male), Events [n (%) n]: patients (%) [4]: 3.8%; Genital Mycotic Infections (male), Events per Subject per Year [4]: 0.048 Events per Subject per Year; Genital Mycotic Infections (male), Relative Risk of EAIR (95% CL) Versus Placebo [4]: 5.96 (0.88, 138.01); Positively Adjudicated Diabetic Ketoacidosis, EAIR per 1,000 Subject-years (95% CL) [4]: 28.62 (8.79, 48.46) per 1,000 Subject-years; Positively Adjudicated Diabetic Ketoacidosis, Events [n (%) n]: events n [4]: 9; Positively Adjudicated Diabetic Ketoacidosis, Events [n (%) n]: patients (%) [4]: 2.6%; Positively Adjudicated Diabetic Ketoacidosis, Events per Subject per Year [4]: 0.032 Events per Subject per Year; Positively Adjudicated Diabetic Ketoacidosis, Relative Risk of EAIR (95% CL) Versus Placebo [4]: 7.77 (1.24, 173.82); Positively Adjudicated Severe Hypoglycemia, EAIR per 1,000 Subject-years (95% CL) [4]: 46.51 (21.23, 71.80) per 1,000 Subject-years; Positively Adjudicated Severe Hypoglycemia, Events [n (%) n]: events n [4]: 25; Positively Adjudicated Severe Hypoglycemia, Events [n (%) n]: patients (%) [4]: 4.3%; Positively Adjudicated Severe Hypoglycemia, Events per Subject per Year [4]: 0.089 Events per Subject per Year; Positively Adjudicated Severe Hypoglycemia, Relative Risk of EAIR (95% CL) Versus Placebo [4]: 0.57 (0.28, 1.14); Genital Mycotic Infections (male), Events [n (%) n]: patients n (400 mg (N = 99), Baseline BMI <27 kg/m^2): 9; Genital Mycotic Infections (female), Events [n (%) n]: patients n (400 mg (N = 113), Baseline BMI <27 kg/m^2): 19; Genital Mycotic Infections (male), Events [n (%) n]: patients n (400 mg (N = 154), Baseline BMI ≥27 kg/m^2): 7; Genital Mycotic Infections (female), Events [n (%) n]: patients n (400 mg (N = 159), Baseline BMI ≥27 kg/m^2): 28; Positively Adjudicated Diabetic Ketoacidosis, Events [n (%) n]: patients n [5]: 9; Positively Adjudicated Severe Hypoglycemia, Events [n (%) n]: patients n [5]: 11; Positively Adjudicated Diabetic Ketoacidosis, Events [n (%) n]: patients n [6]: 11; Positively Adjudicated Severe Hypoglycemia, Events [n (%) n]: patients n [6]: 12
